# Results published in patent publication US8664225B2, “1-[2-(2,4-dimethylphenylsulfanyl)-phenyl] piperazine as a compound with combined serotonin reuptake, 5-HT3 and 5-HT1A activity for the treatment of pain or residual symptoms in depression relating to sleep and cognition” (H. Lundbeck A/S, priority 2007, dated 2014).
# Where two headings read alike, the source gives them in different places.
# Assays:
# Sprague-Dawley rats = test: Contextual fear conditioning in rats; assay type: in vivo, rat; details: 1, 5 and 10 mg/kg s.c. 1 h prior to acquisition, any dose tested
# From the text: The compound administered in the present experiment was 1-[2-(2,4-dimethylphenylsulfanyl)phenyl]piperazine HBr salt.
# We have studied the effect of the compound on acquisition, consolidation and recall of contextual fear conditioning in rats. In the fear conditioning paradigm animals learn to associate a neutral environment (context, the training chamber, CS) with an aversive experience (an electrical foot-shock, US). During re-exposure to the training chamber, animals express a freezing behaviour, which is taken as a direct measure of the fear-related memory [Pavlov J. Biol. Sci., 15, 177-182, 1980]. […] Neurosci., 106, 274-285, 1992].
# Adult male Sprague-Dawley rats (weighing 250-300 g at time of training) from Charles River Laboratories, housed two per cage under a 12 h light/dark cycle, were used. Food and water were available ad libitum. […]
# During the acquisition animals were allowed to freely explore the novel environment for a 1 min habituation period, which co-terminated with one inescapable foot-shock (unconditioned stimulus, US) through the electrifiable grid floor. […] Freezing behaviour was scored during the first 58 s (pre-shock acquisition; experimenter blinded to groups) to determine baseline-freezing responses to the context. […] Freezing behaviour was scored during the whole test period with the experimenter blinded to groups and presented as percent of total test period.
# rat = test: Chronic constriction nerve injury model; assay type: in vivo; details: 7.9 mg/kg s.c., 60 minutes, FIG. 26
# Experimental: This model of neuropathic pain involves the application of four loose ligations around one sciatic nerve of the rat over a period of time to develop both hyperalgesia and allodynia. The effect of test compounds in this test is measured as the time to withdraw the paw upon a thermal stimuli.
# [1] = tested on: extra-cellular levels of ACh; test: Extracellular acetylcholine levels in brain of freely moving rats (microdialysis); assay type: in vivo, rat; details: 2.5-10 mg/kg s.c.
# Experimental: The animals were administered 1-[2-(2,4-dimethylphenylsulfanyl)phenyl]piparazine, HBr salt.
# Male Sprague-Dawley rats, initially weighing 275-300 g, were used. The animals were housed under a 12-hr light/dark cycle under controlled conditions for regular in-door temperature (21±2° C.) and humidity (55±5%) with food and tap water available ad libitum.
# Rats were anaesthetised with hypnorm/dormicum (2 ml/kg) and intracerebral guide cannulas (CMA/12) were stereotaxically implanted into the brain, aiming at positioning the dialysis probe tip in the ventral hippocampus (co-ordinates: 5.6 mm posterior to bregma, lateral −5.0 mm, 7.0 mm ventral to dura) or in the prefrontal cortex (co-ordinates: 3.2 mm anterior to bregma; lateral, 0.8 mm; 4.0 mm ventral to dura). […] The body temperature of the animals was monitored by rectal probe and maintained at 37° C. […]
# The compound dissolved in 10% HPbetaCD and injected subcutaneously (2.5-10 mg/kg). Doses are expressed as mg salt/kg body weight. […]
# Concentration of acetylcholine (ACh) in the dialysates was analysed by means of HPLC with electrochemical detection using a mobile phase consisting of 100 mM disodium hydrogenphosphate, 2.0 mM octane sulfonic acid, 0.5 mM tetramethyl-ammonium chloride and 0.005% MB (ESA), pH 8.0. […] The latter was detected electrochemical by using a platinum electrode (Analytical cell: ESA, model 5040). […]
# [2] = Hygroscopicity (water absorption at relative humidity); assay type: physicochemical
# From the text: Some compounds are hygroscopic, i.e. the absorb water when exposed to humidity. Hygroscopicity is generally regarded as an undesired property for compounds that are to be presented in a pharmaceutical formulation, in particular in a dry formulation, such as tablets. In one embodiment, the invention provides the use of crystals with low hygroscopicity. For oral dosage forms using crystalline active ingredients it is also beneficial if said crystals are well-defined. In the present context, the term “well-defined” in particular means that the stoichiometry is well-defined, i.e. that the ratio between the ions forming the salt is the ratio between small integers, such as 1:1, 1:2, 2:1, 1:1:1, etc. In one embodiment, the compound I forms well-defined crystals.
# physchem = details: water
smiles,measurement,setting,value
"Br.Cc1ccc(Sc2ccccc2N2CCNCC2)c(C)c1 [compound I (HBr salt), 1-[2-(2,4-dimethylphenylsulfanyl)phenyl]piperazine HBr salt]",baseline freezing behaviour before the foot shock,Sprague-Dawley rats,does not affect
same,withdrawal latency following a thermal stimuli,rat,significant and dose-dependant withdrawal latency
same,extra-cellular levels of ACh in prefrontal cortex,[1]; FIG. 19a,significantly increased
same,extra-cellular levels of ACh in ventral hippocampus,[1]; FIG. 19b,significantly increased
"Br.Cc1ccc(Sc2ccccc2N2CCNCC2)c(C)c1 [gamma form of the hydrobromide, 1-[2-(2,4-Dimethylphenylsulfanyl)-phenyl]piperazine hydrobromide]",water absorbed at 30% RH,[2]; 30% RH at room temperature,about 2%
"Cc1ccc(Sc2ccccc2N2CCNCC2)c(C)c1 [crystalline base, 1-[2-(2,4-Dimethylphenylsulfanyl)-phenyl]piperazine]",hygroscopicity (in words),[2],not hygroscopic
"Cc1ccc(Sc2ccccc2N2CCNCC2)c(C)c1.O=P(O)(O)O [phosphate, 1-[2-(2,4-Dimethylphenylsulfanyl)-phenyl]piperazine phosphate]",solubility,physchem,~1000 µg/mL
"Cc1ccc(Sc2ccccc2N2CCNCC2)c(C)c1.O=C(O)/C=C\C(=O)O [maleate, 1-[2-(2,4-Dimethylphenylsulfanyl)-phenyl]piperazine Maleate]",solubility,physchem,~1000 µg/mL
"Cc1ccc(Sc2ccccc2N2CCNCC2)c(C)c1.O=S(=O)(O)O [sulphate, 1-[2-(2,4-Dimethylphenylsulfanyl)-phenyl]piperazine sulphate]",solubility,physchem,~100 µg/mL
"CS(=O)(=O)O.Cc1ccc(Sc2ccccc2N2CCNCC2)c(C)c1 [mesylate, 1-[2-(2,4-Dimethylphenylsulfanyl)-phenyl]piperazine mesylate]",solubility,physchem,> 45000 µg/mL
"Cc1ccc(Sc2ccccc2N2CCNCC2)c(C)c1 [fumarate, 1-[2-(2,4-Dimethylphenylsulfanyl)-phenyl]piperazine]",solubility in water,Solubility in water,400 µg/mL
"Cc1ccc(Sc2ccccc2N2CCNCC2)c(C)c1.Cl [hydrochloride monohydrate, 1-[2-(2,4-Dimethylphenylsulfanyl)-phenyl]piperazine HCl]",hygroscopicity (in words),[2],does not absorb further amount of water
same,solubility in water,Solubility in water; HCl,about 2 mg/ml
"Br.Cc1ccc(Sc2ccccc2N2CCNCC2)c(C)c1 [hemi hydrate of the hydrobromide, 1-[2-(2,4-Dimethylphenylsulfanyl)-phenyl]piperazine hydrobromide]",water content,[2]; room temperature and 95% RH,about 3.7%
"Br.Cc1ccc(Sc2ccccc2N2CCNCC2)c(C)c1 [alpha form of the hydrobromide, 1-[2-(2,4-Dimethylphenylsulfanyl)-phenyl]piperazine hydrobromide]",solubility,physchem,2000 µg/mL
"Cc1ccc(Sc2ccccc2N2CCNCC2)c(C)c1.O=C(O)C(O)C(O)C(=O)O [L-(+)-tartrate, 1-[2-(2,4-Dimethylphenylsulfanyl)-phenyl]piperazine (+)-tartaric acid]",solubility,physchem,~400 µg/mL
"Cc1ccc(Sc2ccccc2N2CCNCC2)c(C)c1.Cl [hydrochloride, 1-[2-(2,4-Dimethylphenylsulfanyl)-phenyl]piperazine hydrochloride]",solubility,physchem,3000 µg/mL
"Cc1ccc(Sc2ccccc2N2CCNCC2)c(C)c1.O=[N+]([O-])O [nitrate, 1-[2-(2,4-Dimethylphenylsulfanyl)-phenyl]piperazine nitrate]",solubility,physchem,~800 µg/mL
